Laboratory results as given in US20060069132A1, “Azolecarboxamide herbicides” (priority 2004, published 2006).

Key:
velvetleaf = experiment: Test B pre-/postemergence herbicide test; type: in vivo, Abutilon theophrasti; settings: for Plant response rating (0 to 100 scale), Velvetleaf: 0 is no effect, 100 is complete control, preemergence
Procedure, shortened: (§1)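 Pre: seeds sown, then sprayed. Post: 1–4-leaf plants (2–18 cm) sprayed at the same time. Paddy: flooded, treated at 2-leaf stage. Formulation: non-phytotoxic solvent with surfactant. Greenhouse 13–15 days; visual 0–100 score relative to controls.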

barnyardgrass [1] = experiment: Test B pre-/postemergence herbicide test; type: in vivo, Echinochloa crus-galli; settings: for Plant response rating (0 to 100 scale), Barnyardgrass: 0 is no effect, 100 is complete control, preemergence; for Barnyardgrass plant response rating: Postemergence, scale 0 (no effect) to 100 (complete control)
Procedure, shortened: (§2)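 Plants compared with untreated controls 13–15 days post-treatment and given a visual 0–100 injury score. Applications: preemergence to seeds; postemergence at 1- to 4-leaf (2–18 cm); paddy species flooded, 2-leaf stage. Vehicle non-phytotoxic, surfactant included.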

giant foxtail = experiment: Test B pre-/postemergence herbicide test; type: in vivo, Setaria faberi; settings: for Plant response rating (0 to 100 scale), Foxtail, Giant: 0 is no effect, 100 is complete control, preemergence
Procedure, shortened: as §1

ducksalad = experiment: Test B flooded paddy test; type: in vivo, Heteranthera limosa; settings: 1000 g ai/ha, scale 0 to 100 (0 no effect, 100 complete control)
Procedure, shortened: (§3)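 Formulated test chemicals went onto postemergence plants measuring 2 to 18 cm, at one to four leaves. For the paddy assay, species had reached two leaves. Scoring took place 13–15 days later by eye, relative to untreated plants, using 0 for no effect up to 100 for full control.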

rice = experiment: Test B flooded paddy test; type: in vivo, Oryza sativa; settings: 1000 g ai/ha, scale 0 to 100 (0 no effect, 100 complete control)
Procedure, shortened: (§4)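 Plants grow to 1- to 4-leaf stage (2–18 cm) for postemergence spraying, or to 2-leaf stage for the paddy test. Formulated compound is applied. Greenhouse holding lasts 13–15 days. Response is scored visually relative to controls, 0 no effect to 100 complete control; a dash means no result.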

[2] = tested on: small flower umbrella sedge; experiment: Test B flooded paddy test; type: in vivo, Cyperus difformis; settings: 1000 g ai/ha, scale 0 to 100 (0 no effect, 100 complete control)
Procedure, shortened: as §3

pigweed = experiment: Test B pre-/postemergence herbicide test; type: in vivo, Amaranthus retroflexus; settings: for Plant response rating (0 to 100 scale), Pigweed: 0 is no effect, 100 is complete control, preemergence
Procedure, shortened: as §1

Surinam grass = experiment: Test B pre-/postemergence herbicide test; type: in vivo, Urochloa decumbens; settings: for Plant response rating (0 to 100 scale), Surinam Grass: 0 is no effect, 100 is complete control, preemergence
Procedure, shortened: as §1

morningglory = experiment: Test B pre-/postemergence herbicide test; type: in vivo, Ipomoea coccinea; settings: for Plant response rating (0 to 100 scale), Morningglory: 0 is no effect, 100 is complete control, preemergence
Procedure, shortened: as §2

cocklebur = experiment: Test B pre-/postemergence herbicide test; type: in vivo, Xanthium strumarium; settings: for Plant response rating (0 to 100 scale), Cocklebur: 0 is no effect, 100 is complete control, preemergence
Procedure, shortened: as §2

large crabgrass = experiment: Test B pre-/postemergence herbicide test; type: in vivo, Digitaria sanguinalis; settings: for Plant response rating (0 to 100 scale), Crabgrass, Large: 0 is no effect, 100 is complete control, preemergence
Procedure, shortened: as §1

blackgrass = experiment: Test B postemergence herbicide test; type: in vivo, Alopecurus myosuroides
Procedure, shortened: as §3

barnyardgrass [3] = experiment: Test B flooded paddy test; type: in vivo, Echinochloa crus-galli; settings: 1000 g ai/ha, scale 0 to 100 (0 no effect, 100 complete control)
Procedure, shortened: as §3

wheat = experiment: Test B postemergence herbicide test; type: in vivo, Triticum aestivum; parameters: key to Wheat plant response rating: 0 = no effect, 100 = complete control
Procedure, shortened: as §4

lambsquarters = experiment: Test B pre-/postemergence herbicide test; type: in vivo, Chenopodium album; settings: for Plant response rating (0 to 100 scale), Lambsquarters: 0 is no effect, 100 is complete control, preemergence
Procedure, shortened: as §1

[4] = Postemergence, 500 g ai/ha, scale 0 (no effect) to 100 (complete control)
[5] = postemergence, 125 g ai/ha, scale 0 to 100
[6] = 500 g ai/ha, scale 0 to 100, 0 no effect, 100 complete control, preemergence

SMILES | Plant response rating (0 to 100 scale), Velvetleaf (velvetleaf; 125 g ai/ha) | Velvetleaf plant response rating (velvetleaf; [4]) | Velvetleaf plant response rating (velvetleaf; [5]) | Plant response rating (0 to 100 scale), Barnyardgrass (barnyardgrass [1]; 125 g ai/ha) | Barnyardgrass plant response rating (barnyardgrass [1]; 125 g ai/ha) | Barnyardgrass plant response rating (barnyardgrass [1]; 500 g ai/ha) | Plant response rating (0 to 100 scale), Foxtail, Giant (giant foxtail; 125 g ai/ha) | Foxtail, Giant plant response rating (giant foxtail; [4]) | Foxtail, Giant plant response rating (giant foxtail; [5]) | Ducksalad plant response rating (ducksalad) | Rice plant response rating (rice) | Sedge, Umbrella plant response rating [2] | Plant response rating (0 to 100 scale), Pigweed (pigweed; 125 g ai/ha) | Pigweed plant response rating (pigweed; [4]) | Pigweed plant response rating (pigweed; [5]) | Plant response rating (0 to 100 scale), Surinam Grass (Surinam grass; 125 g ai/ha) | Surinam Grass plant response rating (Surinam grass; [4]) | Surinam Grass plant response rating (Surinam grass; [5]) | Plant response rating (0 to 100 scale), Morningglory (morningglory; 125 g ai/ha) | Morningglory plant response rating (morningglory; [4]) | also measured
C#CCOc1cccc(NC(=O)c2cc(C(C)(C)C)nn2CC)c1 [Compound 411] | 0 | 10 | 0 | 60 | 0 | 30 | 10 | 30 | 20 | 80 | 50 | 80 | 30 | 90 | 80 | 10 | 10 | 0 | 0 | 0 | Morningglory plant response rating (morningglory; [5]): 0; Plant response rating (0 to 100 scale), Cocklebur (cocklebur; 125 g ai/ha): 0; Cocklebur plant response rating (cocklebur; [4]): 60; Cocklebur plant response rating (cocklebur; [5]): 0; Plant response rating (0 to 100 scale), Crabgrass, Large (large crabgrass; 125 g ai/ha): 80; Crabgrass, Large plant response rating (large crabgrass; [4]): 30; Crabgrass, Large plant response rating (large crabgrass; [5]): 0; Blackgrass plant response rating (blackgrass; [4]): 60; Blackgrass plant response rating (blackgrass; [5]): 40; Barnyardgrass plant response rating (barnyardgrass [3]): 50; Wheat plant response rating (wheat; [6]): 60; Wheat plant response rating (wheat; [4]): 30; Wheat plant response rating (wheat; [5]): 20; Plant response rating (0 to 100 scale), Lambsquarters (lambsquarters; 125 g ai/ha): 50; Lambsquarters plant response rating (lambsquarters; [4]): 90; Lambsquarters plant response rating (lambsquarters; [5]): 20
C=CCOc1cccc(NC(=O)c2cc(C(C)(C)C)nn2CC)c1 [Compound 412] | 0 | 10 | 0 | 40 | 0 | 0 | 30 | 30 | 30 | 80 | 40 | 90 | 50 | 100 | 90 | 0 | 30 | 0 | 0 | 0 | Morningglory plant response rating (morningglory; [5]): 0; Plant response rating (0 to 100 scale), Cocklebur (cocklebur; 125 g ai/ha): 0; Cocklebur plant response rating (cocklebur; [4]): 30; Cocklebur plant response rating (cocklebur; [5]): 0; Plant response rating (0 to 100 scale), Crabgrass, Large (large crabgrass; 125 g ai/ha): 50; Crabgrass, Large plant response rating (large crabgrass; [4]): 30; Crabgrass, Large plant response rating (large crabgrass; [5]): 0; Blackgrass plant response rating (blackgrass; [4]): 40; Blackgrass plant response rating (blackgrass; [5]): 40; Barnyardgrass plant response rating (barnyardgrass [3]): 40; Wheat plant response rating (wheat; [6]): 20; Wheat plant response rating (wheat; [4]): 20; Wheat plant response rating (wheat; [5]): 10; Plant response rating (0 to 100 scale), Lambsquarters (lambsquarters; 125 g ai/ha): 0; Lambsquarters plant response rating (lambsquarters; [4]): 100; Lambsquarters plant response rating (lambsquarters; [5]): 60
CCc1nn(C(C)(C)C)nc1C(=O)Nc1cccc(C(=O)NC2CC2)c1 [Compound 417] | 50 | 40 | 20 | 80 | 10 | 20 | 70 | 40 | 20 | 80 | 70 | 70 | 90 | 80 | 50 | 80 | 30 | 10 | 0 | 60 | Morningglory plant response rating (morningglory; [5]): 50; Plant response rating (0 to 100 scale), Cocklebur (cocklebur; 125 g ai/ha): 0; Cocklebur plant response rating (cocklebur; [4]): 40; Cocklebur plant response rating (cocklebur; [5]): 20; Plant response rating (0 to 100 scale), Crabgrass, Large (large crabgrass; 125 g ai/ha): 100; Crabgrass, Large plant response rating (large crabgrass; [4]): 40; Crabgrass, Large plant response rating (large crabgrass; [5]): 20; Blackgrass plant response rating (blackgrass; [4]): 40; Blackgrass plant response rating (blackgrass; [5]): 10; Barnyardgrass plant response rating (barnyardgrass [3]): 70; Wheat plant response rating (wheat; [6]): 90; Wheat plant response rating (wheat; [4]): 20; Wheat plant response rating (wheat; [5]): 10; Plant response rating (0 to 100 scale), Lambsquarters (lambsquarters; 125 g ai/ha): 90; Lambsquarters plant response rating (lambsquarters; [4]): 80; Lambsquarters plant response rating (lambsquarters; [5]): 70
CCN(CC)C(=O)c1cccc(NC(=O)c2nn(C(C)(C)C)nc2C)c1 [Compound 418] | 50 | 40 | 20 | 70 | 20 | 20 | 80 | 40 | 20 | 70 | 60 | 80 | 100 | 80 | 70 | 90 | 20 | 20 | 40 | 80 | Morningglory plant response rating (morningglory; [5]): 80; Plant response rating (0 to 100 scale), Cocklebur (cocklebur; 125 g ai/ha): 0; Cocklebur plant response rating (cocklebur; [4]): 30; Cocklebur plant response rating (cocklebur; [5]): 20; Plant response rating (0 to 100 scale), Crabgrass, Large (large crabgrass; 125 g ai/ha): 100; Crabgrass, Large plant response rating (large crabgrass; [4]): 30; Crabgrass, Large plant response rating (large crabgrass; [5]): 20; Blackgrass plant response rating (blackgrass; [4]): 30; Blackgrass plant response rating (blackgrass; [5]): 10; Barnyardgrass plant response rating (barnyardgrass [3]): 80; Wheat plant response rating (wheat; [6]): 100; Wheat plant response rating (wheat; [4]): 20; Wheat plant response rating (wheat; [5]): 10; Plant response rating (0 to 100 scale), Lambsquarters (lambsquarters; 125 g ai/ha): 100; Lambsquarters plant response rating (lambsquarters; [4]): 90; Lambsquarters plant response rating (lambsquarters; [5]): 60
